Experimental data from patent US20210147802A1, “METHODS OF GENERATING ENUCLEATED ERYTHROID CELLS USING TAURINE OR HYPOTAURINE” (Rubius Therapeutics, Inc., priority 2019, published 2021).

Columns and labels:
[1] = system: erythroid progenitor cells; assay: Total cell density over time in cultures of erythroid progenitor cells (FIG. 1); format: cell-based; settings: culture medium including the substance during maturation; compared to methods without it
[2] = system: erythroid cells generated from human CD34+ hematopoietic stem cells; assay: Three-stage erythroid culture; maturation-phase (third) medium supplemented; FACS-based cell counting
Procedure: The effect of hypotaurine alone or in combination with myo-inositol on erythroid progenitor cell cultures was examined. Human CD34^+ hematopoietic stem cells (HSCs) were cultured in a three-stage process to generate enucleated erythroid cells. In the first stage, the CD34^+ HSCs were expanded in a T-flask in a first culture medium containing IMDM supplemented recombinant human insulin, recombinant human transferrin, recombinant human SCF, recombinant IL-3, recombinant Flt-3 ligand, and recombinant human IL-3. Subsequently, cells were transduced with a lentiviral vector encoding phenylalanine ammonia lyase. After transduction, cells were cultured in a 50 L bioreactor culture vessel containing a second culture medium containing IMDM, supplemented with recombinant human erythropoietin, recombinant human SCF, recombinant human IL3, recombinant human insulin, dexamethasone, and recombinant human transferrin. For the third stage of the process (maturation phase), an aliquot of cells was seeded into 24 well plate containing a third culture medium containing IMDM supplemented with recombinant human EPO, recombinant human SCF, recombinant human insulin, recombinant transferrin, human AB serum, and human plasma.
[…] Of note, the first, second and third culture media included a basal media (i.e., IMDM) including 0.0072 g/L of myo-inositol. Periodic sampling and cell counting was performed during the third stage using a fluorescence-activated cell sorting-based cell counter.

[3] = system: erythroid progenitor cells; assay: Enucleated erythroid cell density over time in cultures of erythroid progenitor cells (FIG. 2); format: cell-based; settings: culture medium including the substance during maturation; compared to methods without it
[4] = third culture media supplemented with taurine, compared to control culture conditions (data not shown)

**Q.** How did the cell proliferation [1] turn out when `NCCS(=O)O` [hypotaurine] was run?
**A.** increased

**Q.** And the “total cell density of erythroid cells” value ([2]; 1.0 g/L hypotaurine in third culture medium, 24 well plate, compared to control culture conditions (FIG. 1))?
**A.** significantly increase

**Q.** What about the “enucleated erythroid cell density” value ([2]; 1.0 g/L hypotaurine in third culture medium, 24 well plate, compared to control culture conditions (FIG. 2)) of the same compound?
**A.** significantly increase

**Q.** What about the “number of enucleated erythroid cells” value [3] of the same compound?
**A.** increased

**Q.** What about the rate of enucleation [3] of the same compound?
**A.** increased

**Q.** Which cell proliferation [1] does the source give for `NCCS(=O)(=O)O` [taurine] here?
**A.** increased

**Q.** And the “enucleated erythroid cell density” value [2, 4]?
**A.** significant increase

**Q.** And the “total cell density of erythroid cells” value [2, 4]?
**A.** significant increase

**Q.** And the “number of enucleated erythroid cells” value [3]?
**A.** increased

**Q.** What about the rate of enucleation [3] of the same compound?
**A.** increased
